“And” between values parts separate entries of the source, which are not always exact repeats. Equal values may be shown once.
Columns and labels:
trichomonal hydrolases [1] = test: Experiment 14: substrate comparison on swabs with vaginal fluid plus trichomonal hydrolases at low pH; format: biochemical, Trichomonas vaginalis; conditions: threonine pH 2.4, 0-9 scale
Procedure: For each pair of vaginal fluid specimens from a donor, one swab was rubbed on one substrate film and the other swab was rubbed on a different substrate film; two substrates were compared at a time. The concentrations of the substrates varied from 150 mM to 320 mM in the solutions used to make the substrate films, but each specific comparison matched equimolar concentrations of substrates (as specified in Tables 14.1, 14.2, and 14.3 below). In the swabs, the substrate was diluted by vaginal fluid and buffer, and the final concentration of substrate in the swab tip was estimated to be 1/60 of the concentration of substrate in the solutions used to make the films. Immediately after each swab was rubbed on a substrate film, a 35-μL drop of threonine buffer was applied to the plastic where the substrate film had been, and the swab was rubbed on the same spot again until the buffer was absorbed into the swab. The swabs were left lying on the plastic for ten minutes, then each swab was rubbed on a Fast Red or Fast Garnet film. For the comparisons between ZLR and ZVR, and between VLR-MNA and ZRRR-MNA, films made with 10 mM Fast Garnet were used; for the comparison between ZVR and VLR-MNA, films made with 70 mM Fast Red were used. The intensity of pink color that developed on each swab after two minutes was visually scored using the 0-9 color scale presented in Table 11.1 above; fractional scores such as 1.3 were used when color intensities between swabs differed only slightly. In this part of the experiment, 20 μL of trichomonal hydrolases was applied to the tip of each swab containing vaginal fluid just prior to running the assay. Otherwise, the procedure was exactly the same as for the swabs containing only vaginal fluid.

trichomonal hydrolases [2] = test: Experiment 13: hydrolysis of peptide substrates by trichomonal hydrolases at low pH in vaginal fluid supernatant; format: biochemical, Trichomonas vaginalis; parameters: key: −: No red color produced; +: Clearly visible red color produced; ++: Moderately intense red color produced; +++: Very intense red color produced; conditions: Fast Garnet
Procedure: Forty μL of each substrate was pipetted into duplicate wells of a microtiter plate. The plate was covered with tape, placed into a 25° C. incubator, and allowed to warm. A diluted enzyme mixture was prepared by mixing one part (v/v) freshly-thawed trichomonal hydrolase solution to nine parts 2 mM L-cysteine solution. Forty μL of this mixture was added to one well of each pair of duplicate wells. For negative controls, 40 μL of 2 mM L-cysteine was added to the second well in each pair of duplicate wells. The plate was returned to the incubator and incubated for ten minutes. Forty μL of SDS/acetate solution was added to each well, followed by 40 μL of Fast Garnet solution. The intensity of color that developed in each well after five minutes was visually scored using the color scale presented in Table 13.1.
Of the nine substrates hydrolyzed by trichomonal hydrolases to produce an intense pink color (scoring ++ or +++) in the absence of vaginal fluid supernatant, only four produced intense pink color when vaginal fluid supernatant was present.

trichomonal hydrolases [3] = test: Experiment 17: effect of amount of VLR-MNA on color produced by trichomonal hydrolases on swabs; format: biochemical, Trichomonas vaginalis; conditions: 0-9 scale
Procedure: Solution A, containing 10% v/v trichomonal hydrolases and 2 mM L-cysteine, was prepared by mixing 20 μL of trichomonal hydrolases with 4 μl of 100 mM L-cysteine and 176 μL of water, and Solution B, containing 20% v/v trichomonal hydrolases, 5% v/v normal vaginal fluid supernatant and 2 mM L-cysteine, was prepared by mixing 40 μL of trichomonal hydrolases with 10 μL of normal vaginal fluid supernatant, 4 μL of 100 mM L-cysteine and […]. Several 35 μL drops each of Solution A, Solution B, and threonine buffer were individually pipetted onto discrete, separated areas on a sheet of Mylar. Individual cotton swabs were rubbed on a drop of either Solution A or Solution B, then on one, two or three dots of substrate, and then on a drop of buffer. After ten minutes, each swab was rubbed on an indicator film. The intensity of pink color that developed on each swab after thirty seconds was visually scored in 0.5 unit increments using the 0-9 color scale presented in Table 11.1.

trichomonal hydrolases [4] = test: Experiment 13: hydrolysis of peptide substrates by trichomonal hydrolases at low pH, no vaginal fluid; format: biochemical, Trichomonas vaginalis; parameters: key: −: No red color produced; +: Clearly visible red color produced; ++: Moderately intense red color produced; +++: Very intense red color produced; conditions: without vaginal fluid; threonine buffer pH 2.4; 2 mM substrate solution; 10 min 25° C.; Fast Garnet
Summary of the method: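 Peptide substrates incubated in duplicate for 10 min at 25° C. with trichomonal hydrolase diluted 1:9 in 2 mM L-cysteine; negative controls received L-cysteine alone. SDS/acetate and Fast Garnet added, and color visually scored after 5 min on a color scale.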

[5] = system: endogenous hydrolases present in normal vaginal fluid; test: Experiment 14: substrate comparison on swabs with normal vaginal fluid at low pH; format: biochemical, human; parameters: key: 0: Colorless or yellow - no pink color; trace: Peach or orange; 1: Faint pink; 2-8: Intermediate intensities of pink; 8: Very intense pink/red; conditions: Normal (n = 3); 150 mM substrate film solution; threonine pH 2.4; Fast Red; 0-9 scale
Procedure: Mixtures were made of the 400 mM substrate stock solutions, 25% hydroxy-propylcellulose solution, 200 mM L-cysteine, along with additional ethanol to a final concentration of 150-320 mM substrate, 20 mM L-cysteine, and 2-5% hydroxypropyl-cellulose. Substrate films were made by pipetting 1 μL of a mixture over a circular area approximately […] in diameter on a sheet of Mylar, and drying under a stream of dry nitrogen. The dried films were stored in a container with desiccant until used.
For each pair of vaginal fluid specimens from a donor, one swab was rubbed on one substrate film and the other swab was rubbed on a different substrate film; two substrates were compared at a time. The concentrations of the substrates varied from 150 mM to 320 mM in the solutions used to make the substrate films, but each specific comparison matched equimolar concentrations of substrates (as specified in Tables 14.1, 14.2, and 14.3 below). […] The intensity of pink color that developed on each swab after two minutes was visually scored using the 0-9 color scale presented in Table 11.1 above; fractional scores such as 1.3 were used when color intensities between swabs differed only slightly.

trichomonal hydrolases [6] = test: Experiment 11: hydrolysis of ZRRR-MNA by trichomonal hydrolases at pH 1.9-3.4, read on swab; format: biochemical, Trichomonas vaginalis; conditions: Fast Red RL, 0-9 scale
Procedure: The 200 mM ZRRR-MNA solution was mixed with 25% hydroxypropylcellulose solution and additional ethanol to a final concentration of 80 mM ZRRR-MNA and 5% hydroxypropyl-cellulose. Substrate films were made by pipetting 1 μL of a mixture over a circular area approximately ¼-inch in diameter on a sheet of Mylar, and drying under a stream of dry nitrogen. An 80-μL aliquot of a malic acid buffer solution, at each pH listed above, was pipetted into each of eight separate round-bottom wells on a microtiter plate. Eighty μL of 10% trichomonal hydrolase solution was added to each well and mixed thoroughly. Half of the volume in each well (80 μL) was then transferred to a second set of eight wells, into which the swabs were then inserted. After the 80 μL of liquid was absorbed from each well into the respective swab, each swab was rubbed on a substrate film. Ten minutes after the swabs were exposed to substrate, each swab was rubbed on an indicator (Fast Red) film. The intensity of pink color that developed on each swab after one minute was visually scored in 0.5 unit increments using the 0-9 color scale presented in Table 11.1 below. To determine the final pH of the eight mixtures of trichomonal hydrolases and buffer, the pH of the liquid remaining in the first set of eight wells was measured using a pH meter. The experiment was repeated omitting the lowest pH and highest pH wells.

[7] = Hydrolases added (n = 2), 150 mM substrate film solution, Fast Red
[8] = Hydrolases added (n = 5), 200 mM substrate film solution, Fast Garnet

Compound	Color Score (trichomonal hydrolases [1]; [7])	Color Score (trichomonal hydrolases [1]; [8])	Color Score (trichomonal hydrolases [2])	Color Score (trichomonal hydrolases [3]; Solution A (10% trichomonal hydrolases, no vaginal fluid), One dot of Substrate)	Color Score (trichomonal hydrolases [3]; Solution A, Three dots of Substrate)	Color Score (trichomonal hydrolases [3]; Solution A, Two dots of Substrate)	Color Score (trichomonal hydrolases [3]; Solution B (20% trichomonal hydrolases, 5% normal vaginal fluid supernatant), One dot of Substrate)	Color Score (trichomonal hydrolases [3]; Solution B, Three dots of Substrate)	Color Score (trichomonal hydrolases [3]; Solution B, Two dots of Substrate)	Color Score (trichomonal hydrolases [4])	Color Score [5]	Color Scores (trichomonal hydrolases [6]; malic acid pH 1.3 / final pH in wells 1.9)	Color Scores (trichomonal hydrolases [6]; malic acid pH 1.6 / final pH 2.1, 1st experiment and duplicate)	Color Scores (trichomonal hydrolases [6]; malic acid pH 1.9 / final pH 2.3, 1st experiment and duplicate)	Color Scores (trichomonal hydrolases [6]; malic acid pH 2.2 / final pH 2.4, 1st experiment and duplicate)	Color Scores (trichomonal hydrolases [6]; malic acid pH 2.5 / final pH 2.6, 1st experiment and duplicate)	Color Scores (trichomonal hydrolases [6]; malic acid pH 2.8 / final pH 2.9, 1st experiment and duplicate)	Color Scores (trichomonal hydrolases [6]; malic acid pH 3.1 / final pH 3.2, 1st experiment and duplicate)	Color Scores (trichomonal hydrolases [6]; malic acid pH 3.4 / final pH 3.4)	Color Score (trichomonal hydrolases [1]; Hydrolases added (n = 4), 320 mM substrate film solution, Fast Garnet)
COc1cc(NC(=O)C(CCCN=C(N)N)NC(=O)C(CC(C)C)NC(=O)C(N)C(C)C)cc2ccccc12 [VLR-MNA, D-Val-Leu-Arg-MNA]	2 to 2.5	1 to 4	+++	5.5	9	7	2.5	5.5	4	+++	0	–	–	–	–	–	–	–	–	–
CC(=O)O.COc1cc(NC(=O)[C@H](CCCN=C(N)N)NC(=O)[C@H](CCCN=C(N)N)NC(=O)[C@H](CCCN=C(N)N)NC(=O)OCc2ccccc2)cc2ccccc12 [ZRRR-MNA, CBZ-Arg-Arg-Arg-MNA]	–	1 to 4	++	–	–	–	–	–	–	+++	–	2	4.5	5	5.5 and 6	5.5 and 5	5 and 3.5	4.5 and 3	3	–
COc1cc(NC(=O)[C@H](CCCNC(=N)N)NC(=O)[C@@H](NC(=O)OCc2ccccc2)C(C)C)cc2ccccc12 [ZVR, CBZ-Val-Arg-MNA]	4.5 to 5	–	++	–	–	–	–	–	–	+++	2.5 to 3	–	–	–	–	–	–	–	–	1 to 5

Source: patent US20080026417A1, “ASSAYS FOR TRICHOMONAL AND OTHER HYDROLASES” (priority 2002, published 2008)
